Patent US20240197709A1, “POTENTIATING THE TUMOR-SELECTIVE EFFECTS OF NQO1-BIOACTIVATABLE AGENT BY USE OF CMET INHIBITOR” (The Trustees of Indiana University, priority 2022, published 2024)

Columns and labels:
[1] = test system: MIAPaCa2 NQO1−/− PDAC cell line; assay: long-term survival, MIAPaCa2 NQO1 knock out; type: cell-based; conditions: β-lap alone
Excerpt: Graph showing relative long-term survival plot of isogenic MIAPaCa2 NQO1+/+ versus MIAPaCa2 NQO1−/−PDAC cell lines treated with varying concentrations of β-lap alone.

[2] = test system: pY1234-cMET (activated cMET) in the nucleus, A549; assay: Western blots of nuclear versus cytoplasmic fractions; conditions: A549, β-lap 3 μM and 6 μM for 2 h
Procedure: Images of Western blots of nuclear versus cytoplasmic fractions from A549 cells treated with vehicle (DMSO, 0.1%) control and indicated concentrations of β-lap±DIC (50 μM) for 2 h. Lamin B1 and tubulin were used as loading controls for nuclear and cytoplasmic fractions, respectively.
Bar graph depicting quantification of pY1234-cMET (activated cMET) in the nucleus at indicated treatment conditions.

cancers with NQO1 = conditions: average, most cancers with NQO1; cited from earlier work
Capan2 shMET = assay: long-term survival (DNA assay), Capan2 shSCR versus shMET; type: cell-based
Excerpt: FIG. 1-1R. Graph showing relative long-term survival in isogenic Capan2 shSCR versus shMET cell lines using the DNA assay.
Dicoumarol (DIC) is a well-established NQO1 inhibitor (Asher, et al., Biochemistry 2006, 45(20), 6372-8; Motea, et al., Clin Cancer Res 2019, 25(8), 2601-2609; Huang, et al., Cancer Cell 2016, 30(6), 940-952).

[3] = test system: Capan2-mCherry microtumor; assay: 3D spheroid co-culture, tumor cells; type: cell-based; conditions: 3D co-culture with NIH3T3-GFP; crizotinib 2 μM, β-lap 2 μM or 4 μM
Procedure: FIG. 5D. Top Inset: Representative brightfield, green (NIH3T3-GFP), red (Capan2-mCherry), and merged images of 3D spheroid co-culture of Capan2-mCherry (cancer cells) and NIH3T3-GFP (normal cells). 3D co-cultures were exposed to specified treatment conditions and imaged at indicated times to monitor drug response. Scale bar=250 μm. Untreated NIH3T3-GFP 3D spheroid culture by itself (imaged at indicated times) was added for reference.
FIG. 5E. Bar graph of Capan2-mCherry 3D spheroid microtumor growth at specified treatment conditions over time. Asterisk (*) indicates synergistic response in the combination treatment compared to the corresponding individual treatments alone.
Next, we investigated the tumor-selectivity and efficacy of our combination treatment strategy using 3D co-culture spheroids of Capan2 PDAC (permanently labelled with mCherry) and NIH3T3 mouse embryonic fibroblast cells (permanently labelled with GFP) to mimic physiological cell-cell and cell-environment interactions during treatment. […] These are consistent with patient data comparing associated normal tissues versus tumors in pancreas (FIGS. 1-1B, 1-1G) and lungs (FIGS. 1A, 1-1B, 1-1H). Using confocal fluorescent microscopy, we noted that NIH3T3-GFP fibroblast cells were surrounding the Capan2-mCherry PDAC cells in the 3D spheroid co-culture (FIG. 5D).

Capan2 PDAC shMET cells = assay: transwell migration and invasion, Capan2 shSCR vs shMET; type: cell-based; conditions: β-lap 2 μM 2 h, versus shSCR control
Procedure: FIG. 4-1D. Representative images from in vitro transwell migration assay comparing Capan2 shSCR and Capan2 shMET treated with vehicle control or sub-lethal β-lap (2 μM, 2 h). Images were taken at 16 h post-treatment.
FIG. 4-1E. Bar graph illustrating the percentage of Capan2 shSCR vs shMET PDAC cell migration at 16 h post-treatment with vehicle or sub-lethal β-lap (2 μM, 2 h). Two-way ANOVA was used for statistical analyses; * p<0.05; **** p<0.0001.
FIG. 4-1F. Representative images from in vitro transwell invasion assay comparing Capan2 shSCR and Capan-2 shMET treated with vehicle control or sub-lethal β-lap (2 μM, 2 h). Images were taken at 16 h post-treatment.
FIG. 4-1G. Bar graph illustrating the percentage of Capan2 shSCR vs shMET PDAC cell invasion at 16 h post-treatment with vehicle or sub-lethal β-lap (2 μM, 2 h). Two-way ANOVA was used for statistical analyses; * p<0.05; **** p<0.0001.
Overexpression of cMET in many cancers, including NSCLC and PDAC, is known to enhance cancer cell mobility, migration, and invasion (Spina, et al., Biomedicines 2015, 3(1), 71-88). […]

[4] = test system: pY1234-cMET/PARP1 nuclear interaction, A549; conditions: A549, β-lap 3 μM, 2 h
A549 NQO1−/− cells = assay: long-term cell survival, A549 NQO1 knock out; type: cell-based; conditions: β-lap alone
Procedure: LC50 values were calculated from long-term cell survival graphs using GraphPad PRISM; ND denotes Not Determined even at the highest concentration presented. All error bars represent the mean±SEM. **** p<0.0001, *** p<0.001, ** p<0.01, *p<0.05.
FIG. 1F. […] LC50 values were calculated from long-term cell survival graphs using GraphPad PRISM; ND denotes Not Determined even at the highest concentration presented. All error bars represent the mean±SEM. **** p<0.0001, *** p<0.001, ** p<0.01, *p<0.05.

Question: With CC1(C)CCC2=C(O1)c1ccccc1C(=O)C2=O [β-lap, β-Lapachone] as the molecule, how does the “sensitivity after knocking out NQO1” value [1] read?
Answer: more resistant

Question: What about the “translocation of activated cMET (pY1234-cMET) into the nucleus” value [2] of the same molecule?
Answer: greatly enhanced

Question: What about the LD50 (cancers with NQO1) of the same molecule?
Answer: 3.0 to 6.0 µM

Question: What about the “sensitivity to β-lap after stable knockdown of cMET” value (Capan2 shMET) of the same molecule?
Answer: enhanced Capan2 sensitivity

Question: What about the Capan2-mCherry microtumor growth [3] of the same molecule?
Answer: very little effect on tumor growth

Question: What about the cell invasion (Capan2 PDAC shMET cells) of the same molecule?
Answer: significantly reduced

Question: What about the cell migration (Capan2 PDAC shMET cells) of the same molecule?
Answer: significantly reduced

Question: And the “in situ interaction between activated cMET and PARP1 (PLA foci)” value [4]?
Answer: enhanced in situ interaction

Question: What about the “sensitivity after knocking out NQO1” value (A549 NQO1−/− cells) of the same molecule?
Answer: more resistant
